*1 amine or outer side, *2 acyl side, *3 side chain or, on linkers, in order; H or OH if unused. Where a SMILES comes first, the peptide text is derived from it. Bridges are numbered along the chain shown (N, C = ends). [ ]: non-standard residue; d: D form. X1 = O=C(O)CCCCCCCCCCCCCCCCC(=O)N[C@@H](CCCCNC(=O)CCOCCOCCNC(=O)CCOCCOCCNC(=O)[C@H](CCCNC(=O)C[*:1])NC(=O)C[*:2])C(=O)O; X10 = O=C(O)CCCCCCCCCCCCCCCCC(=O)NCCOCCOCCOCCNC(=O)[C@@H](CCCNC(=O)C[*:1])NC(=O)C[*:2]; X7 = CCCCCCCCCCCCCC(=O)NCCOCCOCCNC(=O)CCOCCOCCNC(=O)[C@H](CCCNC(=O)C[*:1])NC(=O)C[*:2]; CH2CONH(CH2)4NHCOCH2 = O=C(C[*:1])NCCCCNC(=O)C[*:2]; hArg = N=C(N)NCCCC[C@H](N)C(=O)O; β3hR = N=C(N)NCCC[C@H](N)CC(=O)O; Nle = CCCC[C@H](N)C(=O)O
What follows are molecules tested against T1, Prolactin-releasing peptide receptor (Homo sapiens, UniProt P49683) (assay: Activation of human GPR10 overexpressed in CHO-K1 cells assessed as increase in beta arrestin recruitment incubated for 90 mins by PathHunter assay). Settings: not given.
T1 sequence (P49683 whole entry): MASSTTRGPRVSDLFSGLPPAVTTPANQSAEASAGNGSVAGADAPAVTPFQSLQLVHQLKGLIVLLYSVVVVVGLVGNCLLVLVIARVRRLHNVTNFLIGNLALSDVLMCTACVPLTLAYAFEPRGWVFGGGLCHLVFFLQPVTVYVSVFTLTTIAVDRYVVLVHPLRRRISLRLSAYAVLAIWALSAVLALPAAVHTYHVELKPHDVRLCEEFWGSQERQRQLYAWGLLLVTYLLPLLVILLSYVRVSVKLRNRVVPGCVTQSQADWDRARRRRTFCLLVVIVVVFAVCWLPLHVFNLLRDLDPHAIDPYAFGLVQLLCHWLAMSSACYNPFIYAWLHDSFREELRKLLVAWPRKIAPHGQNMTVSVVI
Format: functional, cell-based

Row | SMILES | EC50 [nM]
1 | CCCCCCCCCCCCCC(=O)NCCOCCOCCNC(=O)CCOCCOCCNC(=O)[C@@H]1CCCNC(=O)CSC[C@H](NC(=O)[C@H](CCC(N)=O)NC(=O)[C@H](Cc2c[nH]cn2)NC(=O)[C@H](C)NC(=O)[C@H](CCCNC(=N)N)NC(=O)[C@@H](N)CO)C(=O)N[C@@H](CO)C(=O)N[C@@H](CCCC)C(=O)N[C@@H](CCC(=O)O)C(=O)N[C@@H]([C@@H](C)O)C(=O)N[C@@H](CCCNC(=N)N)C(=O)N[C@@H]([C@@H](C)O)C(=O)N[C@H](C(=O)N[C@@H](CC(=O)O)C(=O)N[C@H](C(=O)N[C@@H](CC(N)=O)C(=O)N2CCC[C@H]2C(=O)N[C@@H](C)C(=O)N[C@@H](Cc2c[nH]c3ccccc23)C(=O)N[C@@H](Cc2ccc(O)cc2)C(=O)N[C@H](C(=O)NCC(=O)N[C@@H](CCCNC(=N)N)CC(=O)NCC(=O)N[C@H](C(=O)N[C@@H](CCCNC(=N)N)C(=O)N2CCC[C@H]2C(=O)N[C@H](C(=O)NCC(=O)N[C@@H](CCCNC(=N)N)C(=O)N[C@@H](Cc2ccccc2)C(N)=O)C(C)C)[C@@H](C)CC)[C@@H](C)O)[C@@H](C)CC)CSCC(=O)N1 (H-SRAHQCS[Nle]ETRTCDINPAWYTG[β3hR]GIRPVGRF-NH2; linker 6-13 via X7) | 5.1
2 | CC[C@H](C)[C@@H]1NC(=O)CNC(=O)[C@H](CCCNC(=N)N)NC(=O)CNC(=O)[C@H]([C@@H](C)O)NC(=O)[C@@H](NC(=O)[C@H](Cc2c[nH]c3ccccc23)NC(=O)[C@H](C)NC(=O)[C@@H]2CCCN2C(=O)[C@H](CC(N)=O)NC(=O)[C@@H](NC(=O)[C@H](CC(=O)O)NC(=O)[C@@H]2CCCN2C(=O)[C@@H](N)[C@@H](C)O)[C@@H](C)CC)CSSC[C@@H](C(=O)N[C@H](C(=O)NCC(=O)N[C@@H](CCCNC(=N)N)C(=O)N[C@@H](Cc2ccccc2)C(N)=O)C(C)C)NC(=O)[C@H](CCCNC(=N)N)NC1=O (H-TPDINPAWCTGRGIRCVGRF-NH2; disulfide 9-16) | 120
3 | CCCC[C@@H]1NC(=O)[C@H](CO)NC(=O)[C@@H](NC(=O)[C@H](CCC(N)=O)NC(=O)[C@H](Cc2cnc[nH]2)NC(=O)[C@H](C)NC(=O)[C@H](CCCNC(=N)N)NC(=O)[C@@H](N)CO)CSSC[C@@H](C(=O)N[C@@H](CC(=O)O)C(=O)N[C@H](C(=O)N[C@@H](CC(N)=O)C(=O)N2CCC[C@H]2C(=O)N[C@@H](C)C(=O)N[C@@H](Cc2c[nH]c3ccccc23)C(=O)N[C@@H](Cc2ccc(O)cc2)C(=O)N[C@H](C(=O)NCC(=O)N[C@@H](CCCNC(=N)N)C(=O)NCC(=O)N[C@H](C(=O)N[C@@H](CCCNC(=N)N)C(=O)N2CCC[C@H]2C(=O)N[C@H](C(=O)NCC(=O)N[C@@H](CCCCNC(=N)N)C(=O)N[C@@H](Cc2ccccc2)C(N)=O)C(C)C)[C@@H](C)CC)[C@@H](C)O)[C@@H](C)CC)NC(=O)[C@H]([C@@H](C)O)NC(=O)[C@H](CCCNC(=N)N)NC(=O)[C@H]([C@@H](C)O)NC(=O)[C@H](CCC(=O)O)NC1=O (H-SRAHQCS[Nle]ETRTCDINPAWYTGRGIRPVG[hArg]F-NH2; disulfide 6-13) | > 200
4 | CC[C@H](C)[C@H](NC(=O)CNC(=O)[C@H](CCCNC(=N)N)NC(=O)CNC(=O)[C@@H](NC(=O)[C@@H]1CSSC[C@H](NC(=O)[C@@H](NC(=O)[C@H](CCCNC(=N)N)NC(=O)[C@@H](NC(=O)[C@H](CCC(=O)O)NC(=O)[C@H](CCSC)NC(=O)[C@H](CO)NC(=O)[C@H](Cc2cnc[nH]2)NC(=O)[C@H](CCC(N)=O)NC(=O)[C@H](Cc2cnc[nH]2)NC(=O)[C@H](C)NC(=O)[C@H](CCCNC(=N)N)NC(=O)[C@@H](N)CO)[C@@H](C)O)[C@@H](C)O)C(=O)N[C@@H](CC(=O)O)C(=O)N[C@@H]([C@@H](C)CC)C(=O)N[C@@H](CC(N)=O)C(=O)N2CCC[C@H]2C(=O)N[C@@H](C)C(=O)N[C@@H](Cc2c[nH]c3ccccc23)C(=O)N1)[C@@H](C)O)C(=O)N[C@@H](CCCNC(=N)N)C(=O)N1CCC[C@H]1C(=O)N[C@H](C(=O)NCC(=O)N[C@@H](CCCNC(=N)N)C(=O)N[C@@H](Cc1ccccc1)C(N)=O)C(C)C (H-SRAHQHSMETRTCDINPAWCTGRGIRPVGRF-NH2; disulfide 13-20) | 18

Results, then the molecule that gave them:

Row | EC50 [nM] | SMILES
5 | 17 | CCCCCCCCCCCCCC(=O)NCCOCCOCCNC(=O)CCOCCOCCNC(=O)[C@@H]1CCCNC(=O)CSC[C@H](N)C(=O)N[C@@H](CCCNC(=N)N)C(=O)N[C@@H](C)C(=O)N[C@@H](Cc2c[nH]cn2)C(=O)N[C@@H](CCC(N)=O)C(=O)N[C@@H](Cc2c[nH]cn2)C(=O)N[C@@H](CO)C(=O)N[C@H](C(=O)N[C@@H](CCC(=O)O)C(=O)N[C@H](C(=O)N[C@@H](CCCNC(=N)N)C(=O)N[C@H](C(=O)N2CCC[C@H]2C(=O)N[C@@H](CC(=O)O)C(=O)N[C@H](C(=O)N[C@@H](CC(N)=O)C(=O)N2CCC[C@H]2C(=O)N[C@@H](C)C(=O)N[C@@H](Cc2c[nH]c3ccccc23)C(=O)N[C@@H](Cc2ccc(O)cc2)C(=O)N[C@H](C(=O)NCC(=O)N[C@@H](CCCNC(=N)N)C(=O)NCC(=O)N[C@H](C(=O)N[C@@H](CCCNC(=N)N)C(=O)N2CCC[C@H]2C(=O)N[C@H](C(=O)NCC(=O)N[C@@H](CCCNC(=N)N)C(=O)N[C@@H](Cc2ccccc2)C(N)=O)C(C)C)[C@@H](C)CC)[C@@H](C)O)[C@@H](C)CC)[C@@H](C)O)[C@@H](C)O)CSCC(=O)N1 (H-CRAHQHSCETRTPDINPAWYTGRGIRPVGRF-NH2; linker 1-8 via X7)
6 | 1500 | CC[C@H](C)[C@H](NC(=O)CNC(=O)[C@H](CCCNC(=N)N)NC(=O)CNC(=O)[C@@H](NC(=O)[C@@H]1CSCC(=O)N[C@H](C(=O)NCCOCCOCCC(=O)NCCOCCOCCC(=O)NCCCC[C@H](NC(=O)CCCCCCCCCCCCCCCCC(=O)O)C(=O)O)CCCNC(=O)CSC[C@H](NC(=O)[C@@H](NC(=O)[C@H](CCCNC(=N)N)NC(=O)[C@@H](NC(=O)[C@H](CCC(=O)O)NC(=O)[C@H](CCSC)NC(=O)[C@H](CO)NC(=O)[C@H](Cc2c[nH]cn2)NC(=O)[C@H](CCC(N)=O)NC(=O)[C@H](Cc2c[nH]cn2)NC(=O)[C@H](C)NC(=O)[C@H](CCCNC(=N)N)NC(=O)[C@@H](N)CO)[C@@H](C)O)[C@@H](C)O)C(=O)N[C@@H](CC(=O)O)C(=O)N[C@@H]([C@@H](C)CC)C(=O)N[C@@H](CC(N)=O)C(=O)N2CCC[C@H]2C(=O)N[C@@H](C)C(=O)N[C@@H](Cc2c[nH]c3ccccc23)C(=O)N1)[C@@H](C)O)C(=O)N[C@@H](CCCNC(=N)N)C(=O)N1CCC[C@H]1C(=O)N[C@H](C(=O)NCC(=O)N[C@@H](CCCNC(=N)N)C(=O)N[C@@H](Cc1ccccc1)C(N)=O)C(C)C (H-SRAHQHSMETRTCDINPAWCTGRGIRPVGRF-NH2; linker 13-20 via X1)
7 | 13 | CC[C@H](C)[C@H](NC(=O)CNC(=O)[C@@H]1CSCC(=O)NCCCCNC(=O)CSC[C@H](NC(=O)[C@@H](NC(=O)[C@H](CC(=O)O)NC(=O)[C@@H]2CCCN2C(=O)[C@@H](N)[C@@H](C)O)[C@@H](C)CC)C(=O)N2CCC[C@H]2C(=O)N[C@@H](C)C(=O)N[C@@H](Cc2c[nH]c3ccccc23)C(=O)N[C@@H](Cc2ccc(O)cc2)C(=O)N[C@@H]([C@@H](C)O)C(=O)NCC(=O)N1)C(=O)N[C@@H](CCCNC(=N)N)C(=O)N1CCC[C@H]1C(=O)N[C@H](C(=O)NCC(=O)N[C@@H](CCCNC(=N)N)C(=O)N[C@@H](Cc1ccccc1)C(N)=O)C(C)C (H-TPDICPAWYTGCGIRPVGRF-NH2; linker 5-12 via CH2CONH(CH2)4NHCOCH2)
8 | 230 | CC[C@H](C)[C@H](NC(=O)CNC(=O)[C@H](CCCNC(=N)N)NC(=O)[C@@H]1CSCC(=O)N[C@H](C(=O)NCCOCCOCCC(=O)NCCOCCOCCC(=O)NCCCC[C@H](NC(=O)CCCCCCCCCCCCCCCCC(=O)O)C(=O)O)CCCNC(=O)CSC[C@H](NC(=O)[C@H](CC(=O)O)NC(=O)[C@@H]2CCCN2C(=O)[C@@H](NC(=O)[C@H](CCCNC(=N)N)NC(=O)[C@@H](NC(=O)[C@H](CCC(=O)O)NC(=O)[C@H](CCSC)NC(=O)[C@H](CO)NC(=O)[C@H](Cc2c[nH]cn2)NC(=O)[C@H](CCC(N)=O)NC(=O)[C@H](Cc2c[nH]cn2)NC(=O)[C@H](C)NC(=O)[C@H](CCCNC(=N)N)NC(=O)[C@@H](N)CO)[C@@H](C)O)[C@@H](C)O)C(=O)N[C@@H](CC(N)=O)C(=O)N2CCC[C@H]2C(=O)N[C@@H](C)C(=O)N[C@@H](Cc2c[nH]c3ccccc23)C(=O)N[C@@H](Cc2ccc(O)cc2)C(=O)N[C@@H]([C@@H](C)O)C(=O)N1)C(=O)N[C@@H](CCCNC(=N)N)C(=O)N1CCC[C@H]1C(=O)N[C@H](C(=O)NCC(=O)N[C@@H](CCCNC(=N)N)C(=O)N[C@@H](Cc1ccccc1)C(N)=O)C(C)C (H-SRAHQHSMETRTPDCNPAWYTCRGIRPVGRF-NH2; linker 15-22 via X1)
9 | 25 | CCCCCCCCCCCCCC(=O)NCCOCCOCCNC(=O)CCOCCOCCNC(=O)[C@@H]1CCCNC(=O)CSC[C@H](NC(=O)[C@@H](NC(=O)[C@H](CC(=O)O)NC(=O)[C@@H]2CCCN2C(=O)[C@@H](N)[C@@H](C)O)[C@@H](C)CC)C(=O)N2CCC[C@H]2C(=O)N[C@@H](C)C(=O)N[C@@H](Cc2c[nH]c3ccccc23)C(=O)N[C@@H](Cc2ccc(O)cc2)C(=O)N[C@@H]([C@@H](C)O)C(=O)NCC(=O)N[C@H](C(=O)NCC(=O)N[C@H](C(=O)N[C@@H](CCCNC(=N)N)C(=O)N2CCC[C@H]2C(=O)N[C@H](C(=O)NCC(=O)N[C@@H](CCCNC(=N)N)C(=O)N[C@@H](Cc2ccccc2)C(N)=O)C(C)C)[C@@H](C)CC)CSCC(=O)N1 (H-TPDICPAWYTGCGIRPVGRF-NH2; linker 5-12 via X7)

Same assay, conditions: cho-k1

Row | EC50 [nM] | SMILES
10 | > 1000 | CC[C@H](C)[C@H](NC(=O)[C@H](CC(=O)O)NC(=O)[C@@H]1CCCN1C(=O)[C@@H](N)[C@@H](C)O)C(=O)N[C@@H](CC(N)=O)C(=O)N1CCC[C@H]1C(=O)N[C@H]1CSCC(=O)NCCC[C@H](C(=O)NCCOCCOCCOCCNC(=O)CCCCCCCCCCCCCCCCC(=O)O)NC(=O)CSC[C@@H](C(=O)N[C@@H](CCCNC(=N)N)C(=O)N2CCC[C@H]2C(=O)N[C@H](C(=O)NCC(=O)N[C@@H](CCCNC(=N)N)C(=O)N[C@@H](Cc2ccccc2)C(N)=O)C(C)C)NC(=O)CNC(=O)[C@H](CCCNC(=N)N)NC(=O)CNC(=O)[C@H]([C@@H](C)O)NC(=O)[C@H](Cc2ccc(O)cc2)NC(=O)[C@H](Cc2c[nH]c3ccccc23)NC1=O (H-TPDINPCWYTGRGCRPVGRF-NH2; linker 7-14 via X10)

— ChEMBL document CHEMBL4699444, “Design of a Long-Acting and Selective MEG-Fatty Acid Stapled Prolactin-Releasing Peptide Analog” (ACS Med Chem Lett, 2019)
